Reference: the supplement of paper PMC8671470
± gives the standard deviation of the averaged measurements.

How the values were obtained:
Conditions in all cases: 72 h
[1] = test system: MV4-11
In short: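 Fifteen myeloid leukaemia lines were incubated for 72 h at 37 °C with 5% CO2 across five tenfold doses from 1 to 10,000 nM, in duplicate. ATP luminescence was normalised to vehicle and to a positive control at 10 µM and fitted with a four-parameter log-logistic model. The IC50 came from these dose–response fits.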

[2] = test system: HL-60; experiment: cell viability (% survival relative to DMSO control); higher = less cytotoxic
In short: (§1)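 For each screen, HL-60 cells in RPMI 1640 with 10% FBS carried either DMSO or 100 nM of one of three metabolic inhibitors while the full library was applied at five tenfold concentrations, 1–10,000 nM, in duplicate. Plates were 384-well and were kept 72 h at 37 °C, 5% CO2. Viability, measured by CellTiter-Glo, was normalised to wells with DMSO and with 10 μM proteasome inhibitor. Where area under the curve appears, it was fitted by four-parameter log-logistic models in drc and PharmacoGx.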

[3] = test system: BV-173; experiment: cell viability (% survival relative to DMSO control, bortezomib = 0%); higher = less cytotoxic
In short: (§2)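 Fifteen myeloid leukaemia cell lines (10 AML, 5 CML) were seeded at a density titrated to the linear growth range. They went into 384-well plates with compounds pre-printed at 1, 10, 100, 1000 or 10000 nM in duplicate. After 72 h at 37 °C with 5% CO2, viability was read by CellTiter-Glo luminescence. Values are percent survival, with vehicle set to 100% and a 10 µM positive control to 0%, averaged over the duplicates.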

[4] = test system: HEL; experiment: as above
In short: as §2

[5] = test system: HL-60; experiment: as above
In short: as §2

[6] = test system: K-562; experiment: as above
In short: as §2

[7] = test system: KCL-22; experiment: as above
In short: as §2

[8] = test system: KG-1; experiment: as above
In short: as §2

[9] = test system: KU-812; experiment: as above
In short: as §2

[10] = test system: LAMA-84; experiment: as above
In short: as §2

[11] = test system: ML-2; experiment: as above
In short: as §2

[12] = test system: MOLM-13; experiment: as above
In short: as §2

[13] = test system: MV4-11; experiment: as above
In short: as §2

[14] = test system: Mono-Mac-6; experiment: as above
In short: as §2

[15] = test system: NOMO-1; experiment: as above
In short: as §2

[16] = test system: SHI-1; experiment: as above
In short: as §2

[17] = test system: THP-1; experiment: as above
In short: as §2

[18] = test system: HL-60; experiment: area under dose-response curve (viability, 1 nM-10 uM) (fraction (0-1)); higher = more sensitive
In short: as §1

CN(C)C(=O)n1nnnc1Cc1ccc(-c2ccccc2)cc1
Conditions	IC50 (cell viability) [µM]
[1]	1.77

cell viability [%], [2]
Conditions	0.001 µM	0.01 µM	0.1 µM	1 µM	10 µM
co-treatment: AZD3965 100 nM	91.3 ± 21	99.6 ± 3.9	103 ± 4.8	105 ± 0.8	6.18 ± 1.4
co-treatment: DMSO vehicle	97.5 ± 6	99.54 ± 0.76	101 ± 2.4	101.1 ± 0.28	6.81 ± 0.78
co-treatment: GSK2194069 100 nM	101 ± 18	96.8 ± 5.8	104 ± 1.8	109 ± 14	6.62 ± 1.1
co-treatment: pictilisib 100 nM	96.2 ± 1.6	93.4 ± 2.5	100 ± 1.6	104 ± 2.9	5 ± 0.78

Conditions	area under dose-response curve, co-treatment: AZD3965 100 nM	area under dose-response curve, co-treatment: DMSO vehicle	area under dose-response curve, co-treatment: GSK2194069 100 nM	area under dose-response curve, co-treatment: pictilisib 100 nM	cell viability, 1 nM [%]	cell viability, 10 nM [%]	cell viability, 100 nM [%]	cell viability, 1000 nM [%]	cell viability, 10000 nM [%]
[3]	–	–	–	–	96.6	110	98.1	13.7	0.269
[4]	–	–	–	–	101	112	102	87.1	1.09
[5]	–	–	–	–	114	136	106	108	2.17
[6]	–	–	–	–	100	111	112	78.1	4.59
[7]	–	–	–	–	94.6	109	101	95	0.732
[8]	–	–	–	–	93.7	108	104	60.6	8.52
[9]	–	–	–	–	101	101	96.5	77.9	3.07
[10]	–	–	–	–	83	109	103	85.5	3.4
[11]	–	–	–	–	101	112	114	69.2	3.07
[12]	–	–	–	–	99	122	115	104	0.746
[13]	–	–	–	–	98.3	114	89.2	76.4	0.0147
[14]	–	–	–	–	95.9	102	102	88.6	0.0787
[15]	–	–	–	–	105	99.4	96.7	86.9	26.5
[16]	–	–	–	–	97.5	116	125	112	1.4
[17]	–	–	–	–	103	112	102	67.6	35
[18]	0.113	0.116	0.108	0.116	–	–	–	–	–

O=c1[nH]c(=O)n([C@H]2C[C@H](O)[C@@H](CO)O2)cc1I [Idoxuridine]
Conditions	IC50 (cell viability) [µM]
[1]	1.63

cell viability [%], [2]
Conditions	0.001 µM	0.01 µM	0.1 µM	1 µM	10 µM
co-treatment: AZD3965 100 nM	94.7 ± 5.6	102 ± 7.4	98.5 ± 1.3	97.9 ± 8.4	102 ± 2.1
co-treatment: DMSO vehicle	99.9 ± 2.4	100 ± 3.8	99.7 ± 3.8	94.9 ± 5	103 ± 3.1
co-treatment: GSK2194069 100 nM	95.3 ± 9.7	100 ± 6.1	101 ± 3	98.6 ± 4	86.4 ± 4.5
co-treatment: pictilisib 100 nM	84.1 ± 16	95.8 ± 0.38	97.3 ± 2.2	93.8 ± 0.58	90 ± 3.7

Conditions	area under dose-response curve, co-treatment: AZD3965 100 nM	area under dose-response curve, co-treatment: DMSO vehicle	area under dose-response curve, co-treatment: GSK2194069 100 nM	area under dose-response curve, co-treatment: pictilisib 100 nM	cell viability, 1 nM [%]	cell viability, 10 nM [%]	cell viability, 100 nM [%]	cell viability, 1000 nM [%]	cell viability, 10000 nM [%]
[3]	–	–	–	–	102	86.7	97.6	15.6	1.22
[4]	–	–	–	–	93.8	90.5	92	59.7	36.1
[5]	–	–	–	–	113	105	102	95	84
[6]	–	–	–	–	85.6	102	99.3	73.3	47.1
[7]	–	–	–	–	103	96.7	101	48.9	26.3
[8]	–	–	–	–	101	108	105	84.1	63.3
[9]	–	–	–	–	92.9	95.9	102	88.6	66.5
[10]	–	–	–	–	102	88.8	103	87	47.1
[11]	–	–	–	–	98.1	92.4	105	83.4	28.2
[12]	–	–	–	–	116	91.2	94.1	83.5	32.1
[13]	–	–	–	–	103	89.2	92.6	63.6	21.7
[14]	–	–	–	–	96	91.4	93.5	76	52.1
[15]	–	–	–	–	102	92.2	97.8	95.3	84.8
[16]	–	–	–	–	102	99.6	99.3	95.2	60.3
[17]	–	–	–	–	95.4	100	99.6	104	90
[18]	< 0.0301	< 0.0301	< 0.0301	< 0.0301	–	–	–	–	–

O[C@H]1[C@H](O)[C@@H](O)CN2CC[C@H](O)[C@H]12 [Castanospermine]
Conditions	IC50 (cell viability) [µM]
[1]	> 10

cell viability [%], [2]
Conditions	0.001 µM	0.01 µM	0.1 µM	1 µM	10 µM
co-treatment: AZD3965 100 nM	97.9 ± 2.2	97.5 ± 4.8	104 ± 3.5	101 ± 8	101 ± 3.6
co-treatment: DMSO vehicle	98 ± 6.5	100.5 ± 0.15	96.8 ± 3	98.7 ± 4.9	101 ± 1.6
co-treatment: GSK2194069 100 nM	77.1 ± 28	91.1 ± 24	103 ± 3.5	94.2 ± 4.3	99.09 ± 0.95
co-treatment: pictilisib 100 nM	108 ± 6.9	106 ± 12	89.4 ± 14	92.4 ± 2	99.9 ± 2.1

Conditions	area under dose-response curve, co-treatment: AZD3965 100 nM	area under dose-response curve, co-treatment: DMSO vehicle	area under dose-response curve, co-treatment: GSK2194069 100 nM	area under dose-response curve, co-treatment: pictilisib 100 nM	cell viability, 1 nM [%]	cell viability, 10 nM [%]	cell viability, 100 nM [%]	cell viability, 1000 nM [%]	cell viability, 10000 nM [%]
[3]	–	–	–	–	123	105	95.9	82.4	88.4
[4]	–	–	–	–	113	109	105	126	112
[5]	–	–	–	–	94.2	90.7	114	132	143
[6]	–	–	–	–	95.1	107	96.5	92.2	106
[7]	–	–	–	–	99	98	112	125	94.9
[8]	–	–	–	–	120	98.4	116	99.4	104
[9]	–	–	–	–	96.7	93.5	105	100	94.6
[10]	–	–	–	–	93	97.5	103	95.8	101
[11]	–	–	–	–	115	107	103	96	94.1
[12]	–	–	–	–	79.9	90.7	108	123	117
[13]	–	–	–	–	102	106	97	95.5	107
[14]	–	–	–	–	100	97.3	105	95.1	97.6
[15]	–	–	–	–	105	111	105	105	86.7
[16]	–	–	–	–	106	98	108	125	112
[17]	–	–	–	–	91.9	105	101	96.9	98.8
[18]	< 0.0301	< 0.0301	< 0.0301	< 0.0301	–	–	–	–	–
